# Measured values from patent US11859209B2, “Method for inducing osteogenic differentiation” (KYOTO UNIVERSITY, priority 2017, dated 2024).
# Key:
# iPS cells = assay: Amount of calcium salt deposition (OCPC), one-procedure osteogenic differentiation method; format: cell-based, human
# Method: On-feeder iPS cells were cultured under feeder-free conditions on Matrigel coating in mTeSR (product name, Stemcell Technologies) for three days (D-3 to D0). The cells were seeded on gelatin coating and cultured in a mixed culture medium of osteogenic induction medium (OI medium) and mTeSR (mixing ratio=4:1) supplemented with a ROCK inhibitor (ROCKi) and retinoic acid (RA) for the first two days (D0 to D2). The cells were then cultured in osteogenic induction medium supplemented with retinoic acid (RA) until D10. As a control, cells were cultured in the same culture medium without retinoic acid.
# iPS cells were cultured under feeder-free conditions on laminin coating in StemFit AK03N (product name, Ajinomoto Healthy Supply), and then cultured in a mixed culture medium of osteogenic induction medium (OI medium) and mTeSR (mixing ratio=4:1) supplemented with a ROCK inhibitor (ROCKi) and retinoic acid (RA) for the first two days (D0 to D2). The cells were then cultured in osteogenic induction medium supplemented with retinoic acid (RA) until D10. As a control, cells were cultured in the same culture medium without retinoic acid.
# (§1) For the evaluation of calcified nodule-forming capacity, the cultured cells were fixed in ethyl alcohol, reacted with alizarin red staining solution for 10 minutes and washed. The positive nodules were evaluated qualitatively. Calcium salt deposition was determined quantitatively by measuring the intensity of color produced by o-cresolphthalein complexon (OCPC) solution.
# Next, induction of osteogenic differentiation via BMP and WNT was investigated using inhibitors against them. Cells were cultured in culture medium supplemented with a BMP inhibitor (LDN) or a WNT inhibitor (IWR1) for 10 days, and the amount of calcium salt deposition was determined. […] The results confirmed that both of BMP and WNT signals are implicated in the induction of osteogenic differentiation by retinoic acid.
# Cells were cultured in culture medium supplemented with BMS 493, which is an antagonist against all the retinoic acid receptors (pan-RAR antagonist) for 10 days, and the amount of calcium salt deposition was determined.
# Next, the effects of siRNAs on each RAR were analyzed. […] However, addition of siRNAs against RARα (α#1 and α#2) and siRNAs against RARβ (β#1 and β#2) reduced the bone-forming capacity. […] In the figure, CTL indicates cell culture supplemented with a control siRNA, and (−) indicates cell culture with no siRNA.
# Cells were subjected to the one-procedure osteogenic differentiation method in osteogenic induction medium supplemented with a retinoic acid receptor (RAR) agonist instead of retinoic acid (RA). The amount of calcium salt deposition was determined on day 10. As with addition of retinoic acid, the amount of calcium salt deposition was increased by the addition of the RARα agonists Am 580 (200 nM) and Am 80 (1 μM), or the RARβ agonists CD2314 (3 μM) and AC 55649 (3 μM).
# [1] = test system: bone defects of 4 mm in diameter created in the cranium of NOD-SCID mice; assay: Transplantation of day 7 induced cells into cranial bone defects, micro-CT and histology after six weeks; conditions: transplanted cells cultured in osteogenic induction medium supplemented with retinoic acid, FIG. 8B
# [2] = test system: iPS cells derived from osteogenesis imperfecta patients having abnormalities of the COL1A1 gene; assay: Type I collagen secretion by immunostaining with anti-type I collagen antibody, OI patient-derived iPS cells; format: cell-based, human; conditions: 100 nM added from day 2, assessed on day 10; FIG. 22
# Excerpt: (§2) iPS cells (OI#1-1 and OI#2-1) were established from two OI patients (OI#1 and OI#2) having an abnormal COL1A1 gene. The respective mutations in the COL1A1 gene in the iPS cells were restored by genome editing technology to generate rescued iPS cells (resOI#1-1 and resOI#2-1). These iPS cells and standard iPS cells (WT1, 414C2; WT2, 409B2) were subjected to induction of osteogenic differentiation by the one-procedure osteogenic differentiation method. On day 10 of induction, the cells were compared in terms of the capacity of calcified nodule formation, the amount of calcium salt deposition, the expression of an ER stress-related gene, and the capacity of type I collagen secretion.
# (§3) Accordingly, the inventors investigated whether the one-procedure osteogenic differentiation method can recapitulate the effects of an mTOR inhibitor. Rapamycin (10 nM) or everolimus (100 nM) was added to the culture medium from day 2 of the induction, and differentiation capacity was assessed on day 10.
# [3] = test system: iPS cells derived from osteogenesis imperfecta patients having abnormalities of the COL1A1 gene; assay: Calcium salt deposition of cells induced from OI patient-derived iPS cells; format: cell-based, human; conditions: 100 nM added from day 2, assessed on day 10; FIG. 20
# Method: as §1, §2, §3
# [4] = test system: iPS cells derived from osteogenesis imperfecta patients having abnormalities of the COL1A1 gene; assay: Expression of ER stress-related gene BiP in cells induced from OI patient-derived iPS cells; format: cell-based, human; conditions: 100 nM added from day 2, assessed on day 10; FIG. 21
# Excerpt: as §2, §3
# [5] = test system: iPS cells derived from osteogenesis imperfecta patients having abnormalities of the COL1A1 gene; assay: Alizarin red staining of cells induced from OI patient-derived iPS cells; format: cell-based, human; conditions: 100 nM added from day 2, assessed on day 10; FIG. 19
# Method: as §1, §2, §3
# [6] = day 10, agonist instead of retinoic acid, 3 μM, FIG. 14
# [7] = day 10, agonist instead of retinoic acid, 1 μM, FIG. 14
structure (smiles),measurement,setting,value
CC1(C)CCC(C)(C)c2cc(C(=O)Nc3ccc(C(=O)O)cc3)ccc21 [Am 580],amount of calcium salt deposition,"iPS cells; day 10, agonist instead of retinoic acid, 200 nM, FIG. 14",increased
CC1(C)CC=C(C#Cc2ccccc2)c2cc(/C=C/c3ccc(C(=O)O)cc3)ccc21 [BMS 493],amount of calcium salt deposition,"iPS cells; culture medium supplemented with pan-RAR antagonist for 10 days, induction by RA, FIG. 12",The effects of RA were completely eliminated
O=C(Nc1cccc2cccnc12)c1ccc(N2C(=O)[C@@H]3[C@H](C2=O)[C@@H]2C=C[C@H]3C2)cc1 [IWR1],amount of calcium salt deposition,"iPS cells; culture medium supplemented with BMP or WNT inhibitor for 10 days, induction by retinoic acid, FIG. 11",increase in calcium salt deposition by retinoic acid was inhibited
CC1=C(/C=C/C(C)=C/C=C/C(C)=C/C(=O)O)C(C)(C)CCC1 [retinoic acid],tumor formation,[1],no tumor formation was observed
CC1(C)CCC(C)(C)c2cc3cc(-c4cc(C(=O)O)cs4)ccc3cc21 [CD2314],amount of calcium salt deposition,iPS cells; [6],increased
CO[C@H]1C[C@@H]2CC[C@@H](C)[C@@](O)(O2)C(=O)C(=O)N2CCCC[C@H]2C(=O)O[C@H]([C@H](C)C[C@@H]2CC[C@@H](OCCO)[C@H](OC)C2)CC(=O)[C@H](C)/C=C(\C)[C@@H](O)[C@@H](OC)C(=O)[C@H](C)C[C@H](C)/C=C/C=C/C=C/1C [everolimus],Type I collagen secretion and distribution,[2],remarkably improved
same,amount of calcium salt deposition,[3],improves
same,ER stress (expression of the ER stress-related gene BiP),[4],suggested reduction of ER stress
same,capacity of forming alizarin red-positive calcified nodules,[5],improves
O=C(O)c1ccc2cc(-c3ccc(O)c(C45CC6CC(CC(C6)C4)C5)c3)ccc2c1 [CD437],amount of calcium salt deposition,iPS cells; [7],such effects were not observed
CC1(C)CCC(C)(C)c2cc(Cn3cccn3)c(/C=C/c3ccc(C(=O)O)cc3)cc21 [R667],amount of calcium salt deposition,"iPS cells; day 10, agonist instead of retinoic acid, 100 nM, FIG. 14",such effects were not observed
CCCCCCCCc1ccc(-c2ccc(C(=O)O)cc2)cc1 [AC 55649],amount of calcium salt deposition,iPS cells; [6],increased
CC1(C)CCC(C)(C)c2cc(NC(=O)c3ccc(C(=O)O)cc3)ccc21 [Am 80],amount of calcium salt deposition,iPS cells; [7],increased
